Test results reported in patent US9371335B2, “Spirothienopyran-piperidine derivatives as ORL-1 receptor antagonists for their use in the treatment of alcohol dependence and abuse” (Eli Lilly and Company, priority 2011, dated 2016).

Experiments:
Format in all cases: in vivo, rat
P rats = assay: Free-choice ethanol self-administration in P rats; settings: for Mean EtOH Consumed in g/kg (Drug-treated) / Reduction vs. Vehicle (EtOH consumed): 12 hr; for ethanol self-administration: free-choice access, P rats and msP rats
From the text: Free-Choice Ethanol Self-Administration in Alcohol-Preferring Rats: P Rats:
In this procedure (modified from Rodd-Henricks Z A, McKinzie D L, Shaikh S R, Murphy J M, McBride W J, Lumeng L and Li T K (2000) Alcohol deprivation effect is prolonged in the alcohol preferring (P) rat after repeated deprivations. Alcohol Clin Exp Res 24:8-16), female P rats are obtained from a private colony (Taconic, Germantown, N.Y.), individually-housed with food, 15% ethanol (v/v, in water), and water available ad libitum, and maintained on a 12 hr. light/dark cycle (lights off at 16:00). The chambers are equipped with a force transduction system (TSE Systems, Bad Homburg, Germany) attached to the ethanol, water, and food receptacles to enable continuous monitoring of food and liquid consumption. Rats voluntarily consume 15% ethanol with a mean daily intake of roughly 5 g/kg for several months prior to drug testing. Rats are treated orally with vehicle or test compounds in the dose range of 3, 10, or 30 mg/kg (3 mL/kg dose volume, dissolved in a vehicle consisting of 20% Captisol® in 25 mM phosphate buffer at pH=2), or naltrexone (10 mg/kg, 1 mL/kg dose volume, dissolved in water) immediately prior to the onset of the dark cycle, using a within-subjects, crossover design (3-4 day washout between subsequent doses). In a separate experiment, rats receive oral administration of vehicle followed by 4 daily oral doses of vehicle or 30 mg/kg test compound immediately prior to the onset of the dark cycle, using a between-subjects design.

msP rats [1] = assay: Free-choice ethanol self-administration in msP rats; settings: 24 hr
Description: In a separate study, male msP rats are obtained from a private colony (University of Camerino, Marche, Italy), individually-housed with food, 10% ethanol (v/v in water), and water available ad libitum, and maintained on a 12 hr. light/dark cycle. Ethanol and water are measured using graduated bottles to assess the volume of ethanol consumed (Economidou D, Fedeli A, Fardon R M, Weiss F, Massi M and Ciccocioppo R (2006) Effect of novel nociceptin/orphanin FQ-NOP receptor ligands on ethanol drinking in alcohol-preferring msP rats. Peptides 27:3299-3306.). Food intake is monitored by weighing the food receptacle. Once rats reach a stable baseline of voluntary ethanol consumption of 5-6 g/kg/day (approximately 4-5 months of age), rats are treated orally with test compounds in the dose range of 3 or 30 mg/kg in a formulation consisting of 1:1 distilled water: 1 M H3PO4 (1-5 mL/kg dose volume), one hour prior to onset of the dark cycle, using a within-subjects, crossover design (3-4 day washout between subsequent doses). Ethanol, water, and food are presented to the animals at the onset of the dark cycle, and consumption of food and fluids is measured at 2, 8, and 24 hr intervals.

msP rats [2] = assay: Stress-induced (yohimbine) reinstatement of ethanol-seeking in msP rats; settings: for Reduction vs. Vehicle (lever presses, yohimbine reinstatement) / Avg Lever Presses (Drug-treated): male msP rats, 30 mg/kg oral; for Avg Lever Presses (Drug-treated): yohimbine 2.0 mg/kg ip; for stress-induced reinstatement of ethanol-seeking: msP rats, result in words
From the text: Stress-Induced Reinstatement in msP Rats:
Stress is a key trigger for relapse to drug- and alcohol-seeking in humans and rodents (Sinha R (2008) Chronic stress, drug use, and vulnerability to addiction. Ann N Y Acad Sci 1141:105-130), and can be modeled in rats using a stress-induced reinstatement procedure. In this procedure, stress-induced reinstatement of alcohol-seeking is elicited by administration of the alpha2 adrenoceptor antagonist yohimbine, a known pharmacological stressor (Le A D, Harding S, Juzytsch W, Funk D and Shaham Y (2005) Role of alpha-2 adrenoceptors in stress-induced reinstatement of alcohol seeking and alcohol self-administration in rats. Psychopharmacology (Berl) 179:366-373).
Male msP rats are obtained from the University of Camerino (Marche, Italy) and individually housed with ad libitum access to water and standard laboratory chow. Rats are trained to lever press for 10% ethanol in water (v/v) in standard operant chambers (MED Associates, Inc., St. Albans, Vt.) located in sound-attenuating, ventilated environmental cubicles. The chambers consist of two stainless steel and two clear Plexiglas walls. The floor grid of the operant chambers consists of 0.5 cm diameter stainless steel bars placed approximately 1.5 cm apart. Each operant chamber is equipped with a drinking reservoir 4 cm above the grid floor, with two retractable operant levers located approximately 3 cm on either side of the drinking receptacle. Fluid delivery, lever presses, and presentation of visual stimuli (illumination of a white house light) are controlled by an IBM compatible computer for offline analysis.
Rats are first trained to self-administer ethanol solution in 30-min daily operant sessions under a FR1 schedule of reinforcement, in which each response on the active lever results in delivery of 0.1 ml of ethanol. Each ethanol delivery is associated with a 5-sec time-out signalled by illumination of a white house light. Alcohol self-administration training continues until stable baseline responding is achieved. […] The procedure of each session is the same as ethanol self-administration sessions except that the lever responses are no longer reinforced. Animals are pre-treated with vehicle for 3 days before the initial administration of ORL-1 receptor antagonists in order to familiarize them with the oral administration procedure. The msP rats are then subjected to the reinstatement test conducted under the same extinction conditions. Reinstatement consists of oral administration of vehicle or test compound (3 or 30 mg/kg, n=10/group, solubilized in a 1:1 mixture of distilled water and 1M H3PO4, using gentle warming in a 45-60° C. water bath), followed 30-min later by intraperitoneal administration of yohimbine (2.0 mg/kg) 30-min before the operant session.

[3] = P rats, 30 mg/kg oral once daily, day 2
[4] = P rats, 30 mg/kg oral once daily, day 3
[5] = P rats, 30 mg/kg oral once daily, day 4
[6] = P rats, 30 mg/kg oral once daily, day 5

| Structure (SMILES) | Mean EtOH Consumed in g/kg (Drug-treated) (P rats; P rats, 10 mg/kg oral) [g/kg] | Reduction vs. Vehicle (EtOH consumed) (P rats; P rats, 10 mg/kg oral) [%] | Mean EtOH Consumed in g/kg (Drug-treated) (P rats; P rats, 30 mg/kg oral) [g/kg] | Reduction vs. Vehicle (EtOH consumed) (P rats; P rats, 30 mg/kg oral) [%] | ethanol self-administration (P rats; result in words) | Mean EtOH Consumed in g/kg (Drug-treated) (msP rats [1]; 3 mg/kg oral) [g/kg] | Reduction vs. Vehicle (EtOH consumed) (msP rats [1]; 3 mg/kg oral) [%] | Mean EtOH Consumed in g/kg (Drug-treated) (msP rats [1]; 30 mg/kg oral) [g/kg] | Reduction vs. Vehicle (EtOH consumed) (msP rats [1]; 30 mg/kg oral) [%] | Reduction vs. Vehicle (lever presses, yohimbine reinstatement) (msP rats [2]) [%] | Avg Lever Presses (Drug-treated) (msP rats [2]) | stress-induced reinstatement of ethanol-seeking (msP rats [2]) | other results |
| --- | --- | --- | --- | --- | --- | --- | --- | --- | --- | --- | --- | --- | --- |
| Cc1nn(-c2ncccc2F)cc1CN1CCC2(CC1)OCC(F)(F)c1cc(Cl)sc12 [Compound 2, 2-Chloro-4,4-difluoro-1′-[[1-(3-fluoro-2-pyridyl)-3-methyl-pyrazol-4-yl]methyl]spiro[5H-thieno[2,3-c]pyran-7,4′-piperidine]] | 3.70 | 28.3 | 3.40 | 34.1 | significantly reduce ethanol self-administration | 5.6 | 20.0 | 5 | 28.6 | 69.3 | 5.5 | reduce stress-induced reinstatement of ethanol-seeking |  |
| Cc1nn(-c2ncccc2CO)cc1CN1CCC2(CC1)OCC(F)(F)c1cc(Cl)sc12 [Compound 1, [2-[4-[(2-chloro-4,4-difluoro-spiro[5H-thieno[2,3-c]pyran-7,4′-piperidine]-1′-yl)methyl]-3-methyl-pyrazol-1-yl]-3-pyridyl]methanol] | 3.67 | 22.4 | 1.50 | 68.3 | significantly reduce ethanol self-administration | 6.7 | 8.2 | 4.4 | 39.7 | 72.7 | 4.8 | reduce stress-induced reinstatement of ethanol-seeking | Mean EtOH Consumed in g/kg (Drug-treated) (P rats; P rats, 3 mg/kg oral): 3.54 g/kg; Reduction vs. Vehicle (EtOH consumed) (P rats; P rats, 3 mg/kg oral): 25.2%; Mean EtOH Consumed in g/kg (day 2) (P rats; [3]): 1.59 g/kg; Reduction vs. vehicle (EtOH consumed, day 2) (P rats; [3]): 63.6%; Mean EtOH Consumed in g/kg (day 3) (P rats; [4]): 2.02 g/kg; Reduction vs. vehicle (EtOH consumed, day 3) (P rats; [4]): 61.8%; Mean EtOH Consumed in g/kg (day 4) (P rats; [5]): 2.69 g/kg; Reduction vs. vehicle (EtOH consumed, day 4) (P rats; [5]): 45.0%; Mean EtOH Consumed in g/kg (day 5) (P rats; [6]): 2.50 g/kg; Reduction vs. vehicle (EtOH consumed, day 5) (P rats; [6]): 54.0%; suppression of ethanol intake on repeated dosing (P rats; P rats, 4 days of once daily dosing, result in words): maintain suppression of ethanol intake in P rats throughout 4 days of once daily dosing without tachyphylaxis |
